Measurements: patent US7115749B2, “Substituted 5-oxo pyrazoles and [1,2,4]triazoles as antiviral agents” (priority 2004, dated 2006)

Target: HCV RNA-dependent RNA polymerase NS5B (Δ21) (Hepatitis C virus genotype 1b, UniProt P26663)
Assay: Assay for HCV RNA-dependent RNA polymerase activity (SPA, [3H]-GTP incorporation)
Format: biochemical
Description: Assay for HCV RNA-dependent RNA Polymerase Activity
Inhibitory activity of the present compounds against HCV RNA-dependent RNA polymerase was assayed according to the methods disclosed in U.S. Patent Application U.S.2004/038993, content of which is incorporated herein by reference; and those described in Ferrari, E.; Wright-Minogue, J.; Fang, J. W. S.; Baroudy, B. M.; Lau, J. Y. N.; Hong, Z. J. Virol. 1999, 73, 1649.
Briefly, 50 μl reactions containing 20 mM HEPES (pH 7.3), 7.5 mM DTT, 20 units/ml RNasIN, 0.5 ug/ml biotinylated oligoG12, 5 μg/ml polyC, 5 μM GTP, 20 μCi/ml [^3H]-GTP, 10 mM MgCl2, 60 mM NaCl, 100 μg/ml BSA, and 50 nM NS5B (Δ21) were incubated at room temperature for three hours in 96-well plates with or without test compounds. Assay was terminated by the addition of 50 μl 10 mg/ml streptavidin-coated SPA beads supplemented with 100 mM EDTA, and the incorporation of labeled GTP determined by a TopCount Scintillation Counter. IC50 values were calculated from single experiments using 11 serial 2-fold dilutions (0.05–50 μM), and data were considered reliable only when the IC50 value of a positive internal control was within standard deviation range.

HCV RNA-dependent RNA polymerase NS5B (Δ21), sequence (P26663 2420-2989, stated change not applied): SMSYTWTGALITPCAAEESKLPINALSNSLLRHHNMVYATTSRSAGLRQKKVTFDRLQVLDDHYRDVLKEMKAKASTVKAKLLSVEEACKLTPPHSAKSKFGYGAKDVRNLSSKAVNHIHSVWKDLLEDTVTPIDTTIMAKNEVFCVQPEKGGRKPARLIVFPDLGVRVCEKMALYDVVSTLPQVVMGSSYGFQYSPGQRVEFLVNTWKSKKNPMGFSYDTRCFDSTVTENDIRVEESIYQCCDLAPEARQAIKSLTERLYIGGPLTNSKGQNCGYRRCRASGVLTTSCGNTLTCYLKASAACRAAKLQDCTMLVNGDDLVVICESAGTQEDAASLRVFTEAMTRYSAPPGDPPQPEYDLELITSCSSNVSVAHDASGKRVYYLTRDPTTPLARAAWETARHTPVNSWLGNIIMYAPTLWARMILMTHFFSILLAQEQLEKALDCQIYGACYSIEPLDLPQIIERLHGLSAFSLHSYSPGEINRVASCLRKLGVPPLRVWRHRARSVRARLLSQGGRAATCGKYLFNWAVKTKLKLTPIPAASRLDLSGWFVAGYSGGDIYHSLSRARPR

| Structure (SMILES) | IC50 [µM] |
| --- | --- |
| O=C(Cn1nc(C(=O)O)cc1OCc1ccccc1)N[C@H]1CCCC[C@@H]1OCc1ccccc1 [Compound 1] | 43 |
| CCOc1ccccc1COc1cc(C(=O)O)nn1CC(=O)N[C@H]1CCCC[C@@H]1OCc1ccccc1 [Compound 2] | 1 |
| O=C(Cn1nc(C(=O)O)cc1OCc1ccccc1-c1ccccc1)N[C@H]1CCCC[C@@H]1OCc1ccccc1 [Compound 3] | 1 |
| O=C(Cn1nc(C(=O)O)cc1OCc1ccccc1CS(=O)(=O)c1ccccc1)N[C@H]1CCCC[C@@H]1OCc1ccccc1 [Compound 4] | 32 |
| O=C(Cn1nc(C(=O)O)cc1OCc1ccccc1)Nc1ccccc1OCc1ccccc1 [Compound 5] | 11 |
| CCOc1ccccc1COc1cc(C(=O)O)nn1CC(=O)Nc1ccccc1OCc1ccccc1 [Compound 6] | 40 |
| O=C(Cn1nc(C(=O)O)cc1OCc1ccccc1-c1ccccc1)Nc1ccccc1OCc1ccccc1 [Compound 7] | 11 |
| O=C(Cn1nc(C(=O)O)cc1OCc1ccccc1CS(=O)(=O)c1ccccc1)Nc1ccccc1OCc1ccccc1 [Compound 8] | 0.8 |
| O=C(Cn1nc(C(=O)O)cc1OCc1ccccc1-c1ccc(Cl)cc1)N[C@H]1CCCC[C@@H]1OCc1ccccc1 [Compound 10] | 0.064 |
| O=C(Cn1nc(C(=O)O)cc1OCc1cc(F)cc(C(F)(F)F)c1)N[C@H]1CCCC[C@@H]1OCc1ccccc1 [Compound 11, 1-[((1S, 2S)-2-Benzyloxy-cyclohexylcarbamoyl)-methyl]-5-(3-fluoro-5-trifluoromethyl-benzyloxy)-1H-pyrazole-3-carboxylic acid] | 1.8 |
| O=C(Cn1nc(C(=O)O)cc1OCc1cc(Cl)ccc1Cl)N[C@H]1CCCC[C@@H]1OCc1ccccc1 [Compound 12] | 3.9 |
| O=C(Cn1nc(C(=O)O)cc1OCc1ccccc1Cl)N[C@H]1CCCC[C@@H]1OCc1ccccc1 [Compound 13] | > 12.5 |
| O=C(Cn1nc(C(=O)O)cc1OCc1ccccc1F)N[C@H]1CCCC[C@@H]1OCc1ccccc1 [Compound 14] | > 12.5 |
| O=C(Cn1nc(C(=O)O)cc1OCc1ccc(Cl)cc1)N[C@H]1CCCC[C@@H]1OCc1ccccc1 [Compound 15] | 2.4 |
| Cc1cccc(COc2cc(C(=O)O)nn2CC(=O)N[C@H]2CCCC[C@@H]2OCc2ccccc2)c1F [Compound 16] | 8.4 |
| O=C(Cn1nc(C(=O)O)cc1OCc1ccc(F)cc1Cl)N[C@H]1CCCC[C@@H]1OCc1ccccc1 [Compound 17] | 9.5 |
| O=C(Cn1nc(C(=O)O)cc1OCc1cccc(C(F)(F)F)c1)N[C@H]1CCCC[C@@H]1OCc1ccccc1 [Compound 18] | 2.1 |
| O=C(Cn1nc(C(=O)O)cc1OCc1ccc(C(F)(F)F)cc1)N[C@H]1CCCC[C@@H]1OCc1ccccc1 [Compound 19] | 0.62 |
| O=C(Cn1nc(C(=O)O)cc1OCc1ccccc1C(F)(F)F)N[C@H]1CCCC[C@@H]1OCc1ccccc1 [Compound 20] | 2.9 |
| O=C(Cn1nc(C(=O)O)cc1OCc1ccc(F)cc1)N[C@H]1CCCC[C@@H]1OCc1ccccc1 [Compound 21] | 13 |

| Structure (SMILES) | IC50 [µM] |
| --- | --- |
| Cc1ccc(COc2cc(C(=O)O)nn2CC(=O)N[C@H]2CCCC[C@@H]2OCc2ccccc2)cc1F [Compound 22] | 3 |
| O=C(Cn1nc(C(=O)O)cc1OCc1cc(F)cc(F)c1)N[C@H]1CCCC[C@@H]1OCc1ccccc1 [Compound 23] | 12 |
| O=C(Cn1nc(C(=O)O)cc1OCc1cccc(F)c1F)N[C@H]1CCCC[C@@H]1OCc1ccccc1 [Compound 24] | > 12.5 |
| O=C(Cn1nc(C(=O)O)cc1OCc1ccc(F)c(F)c1)N[C@H]1CCCC[C@@H]1OCc1ccccc1 [Compound 25] | 4.3 |
| O=C(Cn1nc(C(=O)O)cc1OCc1c(F)cccc1F)N[C@H]1CCCC[C@@H]1OCc1ccccc1 [Compound 26] | > 50 |
| O=C(Cn1nc(C(=O)O)cc1OCc1cccc(Cl)c1)N[C@H]1CCCC[C@@H]1OCc1ccccc1 [Compound 27] | 8.6 |
| O=C(Cn1nc(C(=O)O)cc1OCc1cccc(F)c1)N[C@H]1CCCC[C@@H]1OCc1ccccc1 [Compound 28] | > 12.5 |
| O=C(Cn1nc(C(=O)O)cc1OCc1ccc(F)cc1F)N[C@H]1CCCC[C@@H]1OCc1ccccc1 [Compound 29] | > 12.5 |
| O=C(Cn1nc(C(=O)O)cc1OCc1cccc(C(F)(F)F)c1F)N[C@H]1CCCC[C@@H]1OCc1ccccc1 [Compound 30] | 2 |
| O=C(Cn1nc(C(=O)O)cc1OCc1ccc(F)c(C(F)(F)F)c1)N[C@H]1CCCC[C@@H]1OCc1ccccc1 [Compound 31] | 1.4 |
| O=C(Cn1nc(C(=O)O)cc1OCc1ccc(C(F)(F)F)c(F)c1)N[C@H]1CCCC[C@@H]1OCc1ccccc1 [Compound 32] | 0.28 |
| O=C(Cn1nc(C(=O)O)cc1OCc1cc(F)ccc1C(F)(F)F)N[C@H]1CCCC[C@@H]1OCc1ccccc1 [Compound 33] | 2.9 |
| O=C(Cn1nc(C(=O)O)cc1OCc1cc(C(F)(F)F)ccc1F)N[C@H]1CCCC[C@@H]1OCc1ccccc1 [Compound 34] | 6.1 |
| O=C(Cn1nc(C(=O)O)cc1OCc1cccc(Cl)c1F)N[C@H]1CCCC[C@@H]1OCc1ccccc1 [Compound 35] | 9.2 |
| O=C(Cn1nc(C(=O)O)cc1OCc1ccc(Cl)c(Cl)c1)N[C@H]1CCCC[C@@H]1OCc1ccccc1 [Compound 36] | 0.86 |
| O=C(Cn1nc(C(=O)O)cc1OCc1ccc(C(F)(F)F)cc1F)N[C@H]1CCCC[C@@H]1OCc1ccccc1 [Compound 37] | 6.2 |
| O=C(Cn1nc(C(=O)O)cc1OCc1ccc(F)cc1C(F)(F)F)N[C@H]1CCCC[C@@H]1OCc1ccccc1 [Compound 38] | 2.6 |
| O=C(Cn1nc(C(=O)O)cc1OCc1cccc(Oc2ccccc2F)c1)N[C@H]1CCCC[C@@H]1OCc1ccccc1 [Compound 39] | 2.2 |
| O=C(Cn1nc(C(=O)O)cc1OCc1cc(F)ccc1C(F)(F)F)N[C@H]1CCCC[C@@H]1OCc1ccccc1 [Compound 40] | 3.1 |
| O=C(Cn1nc(C(=O)O)cc1OCc1cc(Cl)ccc1F)N[C@H]1CCCC[C@@H]1OCc1ccccc1 [Compound 41] | 7.8 |

| Structure (SMILES) | IC50 [µM] |
| --- | --- |
| O=C(Cn1nc(C(=O)O)cc1OCc1ccc(F)c(Cl)c1)N[C@H]1CCCC[C@@H]1OCc1ccccc1 [Compound 42] | 13 |
| Cc1cc(COc2cc(C(=O)O)nn2CC(=O)N[C@H]2CCCC[C@@H]2OCc2ccccc2)ccc1F [Compound 43] | 3.1 |
| O=C(Cn1nc(C(=O)O)cc1OCc1cccc(F)c1C(F)(F)F)N[C@H]1CCCC[C@@H]1OCc1ccccc1 [Compound 44] | 4.5 |
| O=C(Cn1nc(C(=O)O)cc1OCc1ccc2ccccc2c1)N[C@H]1CCCC[C@@H]1OCc1ccccc1 [Compound 45] | 6.8 |
| O=C(Cn1nc(C(=O)O)cc1OCc1cc(F)ccc1F)N[C@H]1CCCC[C@@H]1OCc1ccccc1 [Compound 46] | > 12.5 |
| COc1cccc(COc2cc(C(=O)O)nn2CC(=O)N[C@H]2CCCC[C@@H]2OCc2ccccc2)c1 [Compound 47] | > 50 |
| O=C(Cn1nc(C(=O)O)cc1OCc1cccc(C(=O)O)c1)N[C@H]1CCCC[C@@H]1OCc1ccccc1 [Compound 48] | > 50 |
| COc1cccc(-c2ccccc2COc2cc(C(=O)O)nn2CC(=O)N[C@H]2CCCC[C@@H]2OCc2ccccc2)c1 [Compound 49] | 3.6 |
| COc1ccc(-c2ccccc2COc2cc(C(=O)O)nn2CC(=O)N[C@H]2CCCC[C@@H]2OCc2ccccc2)cc1 [Compound 50, 1-[(2-benzyloxy-cyclohexylcarbamoyl)-methyl]-5-(4′-methoxy-biphenyl-2-ylmethoxy)-1H-pyrazole-3-carboxylic acid] | 0.38 |
| CS(=O)(=O)c1cccc(-c2ccccc2COc2cc(C(=O)O)nn2CC(=O)N[C@H]2CCCC[C@@H]2OCc2ccccc2)c1 [Compound 51] | 22 |
| CS(=O)(=O)c1ccc(-c2ccccc2COc2cc(C(=O)O)nn2CC(=O)N[C@H]2CCCC[C@@H]2OCc2ccccc2)cc1 [Compound 52] | 9.2 |
| O=C(Cn1nc(C(=O)O)cc1OCc1ccccc1-c1cccc(Cl)c1)N[C@H]1CCCC[C@@H]1OCc1ccccc1 [Compound 53] | 0.78 |
| O=C(Cn1nc(C(=O)O)cc1OCc1ccccc1-c1ccccc1Cl)N[C@H]1CCCC[C@@H]1OCc1ccccc1 [Compound 54] | 2.6 |
| O=C(Cn1nc(C(=O)O)cc1OCc1ccccc1-c1cccc(C(=O)O)c1)N[C@H]1CCCC[C@@H]1OCc1ccccc1 [Compound 55] | > 12.5 |
| O=C(Cn1nc(C(=O)O)cc1OCc1ccccc1-c1ccc(C(=O)O)cc1)N[C@H]1CCCC[C@@H]1OCc1ccccc1 [Compound 56] | > 12.5 |
| O=C(Cn1nc(C(=O)O)cc1OCc1ccccc1-c1cccs1)N[C@H]1CCCC[C@@H]1OCc1ccccc1 [Compound 57] | 2.1 |
| O=C(Cn1nc(C(=O)O)cc1OCc1ccccc1-c1ccsc1)N[C@H]1CCCC[C@@H]1OCc1ccccc1 [Compound 58, 1-[(2-benzyloxy-cyclohexylcarbamoyl)-methyl]-5-(2-thiophen-3-yl-benzyloxy)-1H-pyrazole-3-carboxylic acid] | 0.75 |
| CC(C)(C)COc1cc(C(=O)O)nn1CC(=O)N[C@H]1CCCC[C@@H]1OCc1ccccc1 [Compound 59] | > 12.5 |
| CC(C)COc1cc(C(=O)O)nn1CC(=O)N[C@H]1CCCC[C@@H]1OCc1ccccc1 [Compound 60] | > 50 |
| O=C(Cn1nc(C(=O)O)cc1OCc1ccccc1I)N[C@H]1CCCC[C@@H]1OCc1ccccc1 [Compound 61] | 6.5 |
